Values quoted from earlier work, collected in patent US9221029B2, “Automatic system for synthesizing 123I-MIBG and automatic device for synthesizing and dispensing 123I-MIBG comprising the same” (Institute of Nuclear Energy Research Atomic Energy Council, …, priority 2013, dated 2015).
Where two headings read alike, the source gives them in different places. Each block holds one compound with its values, some of them ahead of it.

Columns and labels:
neuroblast = settings: after intravenous injection
neuroblastoma [1] = settings: 21 neuroblastoma patients; especially at bones
neuroblastoma [2] = settings: in vivo
[3] = despite the use of oral potassium iodide (KI)
[4] = ranging from 15 minutes to 48 hours
[5] = system: tumors (neuroblastoma cells); settings: after false-positive and false-negative imaging results are ruled out
[6] = used for diagnosis

gathered in neuroblast (neuroblast): 90%
SMILES: N=C(N)NCc1cccc(I)c1 [MIBG, meta-iodobenzylguanidine]
sensitivity of imaging compared with FDG-PET (neuroblastoma [1]): higher sensitivity

SMILES: N=C(N)NCc1cccc([131I])c1 [^131I-MIBG]
treatment effective rate on neuroblastoma (neuroblastoma [2]): 30-40%
side effects of therapy [3]: hypothyroidism still occurs
saliva-to-plasma ratio [4]: greater than 1.0
excreted out of the body through urine (24 hours after injection): 57%
excreted out of the body through urine (48 hours after injection): 70%
still exists in the blood (one hour after injection, neuroblastoma patients): ≤ 10%

patients with accumulated ^123I-MIBG in salivary glands [6]: 92-100%
SMILES: N=C(N)NCc1cccc([123I])c1 [^123I-MIBG, iodine-123 meta-iodobenzylguanidine]
specifically bound to tumors [5]: ~100%
